The conditions of this data set: 101.33 kPa, Liquid.

The structures appear in SMILES notation. Numbers after ± are expanded uncertainties.

On to `CCCCCCC` [heptane], for which the mass density runs as follows: (293.15 K) 682.8 ± 0.7 kg/m3; (298.15 K) 678.6 ± 0.8 kg/m3; (303.15 K) 674.7 ± 0.8 kg/m3; (308.15 K) 670.7 ± 0.9 kg/m3; (313.15 K) 665.6 ± 0.9 kg/m3. Also, the viscosity is recorded as 0.4142 ± 0.0078 mPa·s (293.15 K); 0.3928 ± 0.0075 mPa·s (298.15 K); 0.3728 ± 0.0072 mPa·s (303.15 K); 0.3541 ± 0.007 mPa·s (308.15 K); 0.3374 ± 0.0067 mPa·s (313.15 K).

Turning to `CCCCCCCCC` [nonane], the mass density came out at 717.9 ± 0.9 kg/m3 (293.15 K); 714 ± 0.9 kg/m3 (298.15 K); 710.8 ± 1 kg/m3 (303.15 K); 706.7 ± 1 kg/m3 (308.15 K); 702.8 ± 1.1 kg/m3 (313.15 K). The viscosity is listed as 0.7091 ± 0.012 mPa·s (293.15 K); 0.664 ± 0.012 mPa·s (298.15 K); 0.6217 ± 0.011 mPa·s (303.15 K); 0.5849 ± 0.011 mPa·s (308.15 K); 0.55 ± 0.01 mPa·s (313.15 K).

As a reminder, the mass density is mass per unit of volume. What is called viscosity is the internal friction of a fluid under shear.

Source of the values: the NIST ThermoML archive (doi:10.1021/je700202h).
